Assay results taken from ChEMBL document CHEMBL3044663, “Synthesis and antimicrobial activities of novel bisacridine-1,8-dione derivatives” (2011).
Calls of active or inactive are those of the source. The rule behind the calls is not given here.

Legend:
Assay type in all cases: functional
Candida albicans = test: Antifungal activity against Candida albicans 16231 after 24 hr by disk diffusion method; as to DIZ: test concentration or dose not given here
Saccharomyces cerevisiae = test: Antifungal activity against Saccharomyces cerevisiae TP (3-2) after 24 hr by disk diffusion method; also: test concentration or dose not given here
Salmonella = test: Antibacterial activity against Salmonella 21.3 after 24 hr by disk diffusion method; as to DIZ: test concentration or dose not given here
Shigella sonnei = test: Antibacterial activity against Shigella sonnei RSKK 877 after 24 hr by disk diffusion method; as to DIZ: test concentration or dose not given here; as to diameter of the inhibition zone (DIZ): test concentration or dose not given here
Escherichia coli = test: Antibacterial activity against Escherichia coli ATCC 35218 after 24 hr by disk diffusion method; as to DIZ: test concentration or dose not given here
Pseudomonas aeruginosa = test: Antibacterial activity against Pseudomonas aeruginosa ATCC 27853 after 24 hr by disk diffusion method; as to DIZ: test concentration or dose not given here
Bacillus cereus = test: Antibacterial activity against Bacillus cereus RSKK 863 after 24 hr by disk diffusion method; also: test concentration or dose not given here
Staphylococcus aureus = test: Antibacterial activity against Staphylococcus aureus ATCC 25923 after 24 hr by disk diffusion method; also: test concentration or dose not given here
Bacillus subtilis = test: Antibacterial activity against Bacillus subtilis RSKK 240 after 24 hr by disk diffusion method; also: test concentration or dose not given here
[1] = tested on: Staphylococcus epidermidis; test: Antibacterial activity against Staphylococcus epidermidis Mu 30 after 24 hr by disk diffusion method; also: test concentration or dose not given here

CC(=O)N1CCN(c2ccc(OCC3COC(Cn4ccnc4)(c4ccc(Cl)cc4Cl)O3)cc2)CC1 (configuration not stated) [KETOCONAZOLE]
diameter of the inhibition zone (DIZ) (Candida albicans): 21 mm
diameter of the inhibition zone (DIZ) (Saccharomyces cerevisiae): 24 mm

GENTAMICIN
inhibition zone (IZ) (Salmonella): 10 mm
inhibition zone (IZ) (Shigella sonnei): 11 mm
inhibition zone (IZ) (Escherichia coli): 15 mm
inhibition zone (IZ) (Pseudomonas aeruginosa): 20 mm

COc1ccccc1N1C2=C(C(=O)CCC2)C(c2cccc(C3C4=C(CCCC4=O)N(c4ccccc4OC)C4=C3C(=O)CCC4)c2)C2=C1CCCC2=O
diameter of the inhibition zone (DIZ) (Candida albicans): inactive
diameter of the inhibition zone (DIZ) (Bacillus cereus): inactive
diameter of the inhibition zone (DIZ) (Staphylococcus aureus): inactive
diameter of the inhibition zone (DIZ) (Bacillus subtilis): inactive
diameter of the inhibition zone (DIZ) (Salmonella): inactive
diameter of the inhibition zone (DIZ) (Shigella sonnei): inactive
diameter of the inhibition zone (DIZ) (Escherichia coli): inactive
diameter of the inhibition zone (DIZ) [1]: inactive
diameter of the inhibition zone (DIZ) (Saccharomyces cerevisiae): inactive
diameter of the inhibition zone (DIZ) (Pseudomonas aeruginosa): inactive

COc1ccccc1N1C2=C(C(=O)CC(C)(C)C2)C(c2cccc(C3C4=C(CC(C)(C)CC4=O)N(c4ccccc4OC)C4=C3C(=O)CC(C)(C)C4)c2)C2=C1CC(C)(C)CC2=O
diameter of the inhibition zone (DIZ) (Candida albicans): 15 mm
diameter of the inhibition zone (DIZ) (Bacillus cereus): 13 mm
diameter of the inhibition zone (DIZ) (Staphylococcus aureus): 9 mm
diameter of the inhibition zone (DIZ) (Bacillus subtilis): 8 mm
diameter of the inhibition zone (DIZ) (Salmonella): 8 mm
diameter of the inhibition zone (DIZ) (Shigella sonnei): 12 mm
diameter of the inhibition zone (DIZ) (Escherichia coli): 14 mm
diameter of the inhibition zone (DIZ) [1]: 13 mm
diameter of the inhibition zone (DIZ) (Saccharomyces cerevisiae): 14 mm
diameter of the inhibition zone (DIZ) (Pseudomonas aeruginosa): 10 mm

COc1cccc(N2C3=C(C(=O)CCC3)C(c3cccc(C4C5=C(CCCC5=O)N(c5cccc(OC)c5)C5=C4C(=O)CCC5)c3)C3=C2CCCC3=O)c1
diameter of the inhibition zone (DIZ) (Candida albicans): 12 mm
diameter of the inhibition zone (DIZ) (Bacillus cereus): inactive
diameter of the inhibition zone (DIZ) (Staphylococcus aureus): 16 mm
diameter of the inhibition zone (DIZ) (Bacillus subtilis): 11 mm
diameter of the inhibition zone (DIZ) (Salmonella): 12 mm
diameter of the inhibition zone (DIZ) (Shigella sonnei): 10 mm
diameter of the inhibition zone (DIZ) (Escherichia coli): 14 mm
diameter of the inhibition zone (DIZ) [1]: 11 mm
diameter of the inhibition zone (DIZ) (Saccharomyces cerevisiae): 11 mm
diameter of the inhibition zone (DIZ) (Pseudomonas aeruginosa): 9 mm

CC1(C)CC(=O)C2=C(C1)N(c1ccc(C(=O)O)cc1)C1=C(C(=O)CC(C)(C)C1)C2c1cccc(C2C3=C(CC(C)(C)CC3=O)N(c3ccc(C(=O)O)cc3)C3=C2C(=O)CC(C)(C)C3)c1
diameter of the inhibition zone (DIZ) (Candida albicans): 12 mm
diameter of the inhibition zone (DIZ) (Bacillus cereus): 9 mm
diameter of the inhibition zone (DIZ) (Staphylococcus aureus): inactive
diameter of the inhibition zone (DIZ) (Bacillus subtilis): 11 mm
diameter of the inhibition zone (DIZ) (Salmonella): 9 mm
diameter of the inhibition zone (DIZ) (Shigella sonnei): 11 mm
diameter of the inhibition zone (DIZ) (Escherichia coli): 10 mm
diameter of the inhibition zone (DIZ) [1]: 11 mm
diameter of the inhibition zone (DIZ) (Saccharomyces cerevisiae): 13 mm
diameter of the inhibition zone (DIZ) (Pseudomonas aeruginosa): inactive

CC1(C)CC(=O)C2=C(C1)N(c1ccccc1C#N)C1=C(C(=O)CC(C)(C)C1)C2c1cccc(C2C3=C(CC(C)(C)CC3=O)N(c3ccccc3C#N)C3=C2C(=O)CC(C)(C)C3)c1
diameter of the inhibition zone (DIZ) (Candida albicans): 14 mm
diameter of the inhibition zone (DIZ) (Bacillus cereus): inactive
diameter of the inhibition zone (DIZ) (Staphylococcus aureus): 12 mm
diameter of the inhibition zone (DIZ) (Bacillus subtilis): inactive
diameter of the inhibition zone (DIZ) (Salmonella): 9 mm
diameter of the inhibition zone (DIZ) (Shigella sonnei): 10 mm
diameter of the inhibition zone (DIZ) (Escherichia coli): 12 mm
diameter of the inhibition zone (DIZ) [1]: 9 mm
diameter of the inhibition zone (DIZ) (Saccharomyces cerevisiae): 14 mm
diameter of the inhibition zone (DIZ) (Pseudomonas aeruginosa): 9 mm

CC1(C)S[C@@H]2[C@H](NC(=O)[C@H](N)c3ccccc3)C(=O)N2[C@H]1C(=O)O [AMPICILLIN]
diameter of the inhibition zone (DIZ) (Bacillus cereus): 20 mm
diameter of the inhibition zone (DIZ) (Staphylococcus aureus): 24 mm
diameter of the inhibition zone (DIZ) (Bacillus subtilis): 24 mm
diameter of the inhibition zone (DIZ) (Salmonella): 23 mm
diameter of the inhibition zone (DIZ) (Shigella sonnei): 22 mm
diameter of the inhibition zone (DIZ) (Escherichia coli): 27 mm

N#Cc1cccc(N2C3=C(C(=O)CCC3)C(c3cccc(C4C5=C(CCCC5=O)N(c5cccc(C#N)c5)C5=C4C(=O)CCC5)c3)C3=C2CCCC3=O)c1
diameter of the inhibition zone (DIZ) (Candida albicans): 27 mm
diameter of the inhibition zone (DIZ) (Bacillus cereus): inactive
diameter of the inhibition zone (DIZ) (Staphylococcus aureus): 9 mm
diameter of the inhibition zone (DIZ) (Bacillus subtilis): inactive
diameter of the inhibition zone (DIZ) (Salmonella): 10 mm
diameter of the inhibition zone (DIZ) (Shigella sonnei): 12 mm
diameter of the inhibition zone (DIZ) (Escherichia coli): 8 mm
diameter of the inhibition zone (DIZ) [1]: inactive
diameter of the inhibition zone (DIZ) (Saccharomyces cerevisiae): 17 mm
diameter of the inhibition zone (DIZ) (Pseudomonas aeruginosa): 10 mm

N#Cc1ccccc1N1C2=C(C(=O)CCC2)C(c2cccc(C3C4=C(CCCC4=O)N(c4ccccc4C#N)C4=C3C(=O)CCC4)c2)C2=C1CCCC2=O
diameter of the inhibition zone (DIZ) (Candida albicans): 13 mm
diameter of the inhibition zone (DIZ) (Bacillus cereus): inactive
diameter of the inhibition zone (DIZ) (Staphylococcus aureus): 10 mm
diameter of the inhibition zone (DIZ) (Bacillus subtilis): inactive
diameter of the inhibition zone (DIZ) (Salmonella): 11 mm
diameter of the inhibition zone (DIZ) (Shigella sonnei): 10 mm
diameter of the inhibition zone (DIZ) (Escherichia coli): 8 mm
diameter of the inhibition zone (DIZ) [1]: 10 mm
diameter of the inhibition zone (DIZ) (Saccharomyces cerevisiae): 20 mm
diameter of the inhibition zone (DIZ) (Pseudomonas aeruginosa): 14 mm

CC1(C)CC(=O)C2=C(C1)N(c1cccc(C(=O)O)c1)C1=C(C(=O)CC(C)(C)C1)C2c1cccc(C2C3=C(CC(C)(C)CC3=O)N(c3cccc(C(=O)O)c3)C3=C2C(=O)CC(C)(C)C3)c1
diameter of the inhibition zone (DIZ) (Candida albicans): 16 mm
diameter of the inhibition zone (DIZ) (Bacillus cereus): 8 mm
diameter of the inhibition zone (DIZ) (Staphylococcus aureus): 10 mm
diameter of the inhibition zone (DIZ) (Bacillus subtilis): 9 mm
diameter of the inhibition zone (DIZ) (Salmonella): 11 mm
diameter of the inhibition zone (DIZ) (Shigella sonnei): 10 mm
diameter of the inhibition zone (DIZ) (Escherichia coli): 9 mm
diameter of the inhibition zone (DIZ) [1]: inactive
diameter of the inhibition zone (DIZ) (Saccharomyces cerevisiae): 16 mm
diameter of the inhibition zone (DIZ) (Pseudomonas aeruginosa): 9 mm

O=C1CCCC2=C1C(c1cccc(C3C4=C(CCCC4=O)N(c4ccc(C(=O)O)cc4)C4=C3C(=O)CCC4)c1)C1=C(CCCC1=O)N2c1ccc(C(=O)O)cc1
diameter of the inhibition zone (DIZ) (Candida albicans): 10 mm
diameter of the inhibition zone (DIZ) (Bacillus cereus): inactive
diameter of the inhibition zone (DIZ) (Staphylococcus aureus): 11 mm
diameter of the inhibition zone (DIZ) (Bacillus subtilis): 8 mm
diameter of the inhibition zone (DIZ) (Salmonella): 8 mm
diameter of the inhibition zone (DIZ) (Shigella sonnei): 9 mm
diameter of the inhibition zone (DIZ) (Escherichia coli): 9 mm
diameter of the inhibition zone (DIZ) [1]: 12 mm
diameter of the inhibition zone (DIZ) (Saccharomyces cerevisiae): inactive
diameter of the inhibition zone (DIZ) (Pseudomonas aeruginosa): 10 mm

CC1(C)CC(=O)C2=C(C1)N(c1cccc(C#N)c1)C1=C(C(=O)CC(C)(C)C1)C2c1cccc(C2C3=C(CC(C)(C)CC3=O)N(c3cccc(C#N)c3)C3=C2C(=O)CC(C)(C)C3)c1
diameter of the inhibition zone (DIZ) (Candida albicans): 16 mm
diameter of the inhibition zone (DIZ) (Bacillus cereus): inactive
diameter of the inhibition zone (DIZ) (Staphylococcus aureus): 10 mm
diameter of the inhibition zone (DIZ) (Bacillus subtilis): inactive
diameter of the inhibition zone (DIZ) (Salmonella): 10 mm
diameter of the inhibition zone (DIZ) (Shigella sonnei): 9 mm
diameter of the inhibition zone (DIZ) (Escherichia coli): 13 mm
diameter of the inhibition zone (DIZ) [1]: 8 mm
diameter of the inhibition zone (DIZ) (Saccharomyces cerevisiae): 14 mm
diameter of the inhibition zone (DIZ) (Pseudomonas aeruginosa): 8 mm

O=C1CCCC2=C1C(c1cccc(C3C4=C(CCCC4=O)N(c4cccc(C(=O)O)c4)C4=C3C(=O)CCC4)c1)C1=C(CCCC1=O)N2c1cccc(C(=O)O)c1
diameter of the inhibition zone (DIZ) (Candida albicans): 14 mm
diameter of the inhibition zone (DIZ) (Bacillus cereus): 8 mm
diameter of the inhibition zone (DIZ) (Staphylococcus aureus): inactive
diameter of the inhibition zone (DIZ) (Bacillus subtilis): 9 mm
diameter of the inhibition zone (DIZ) (Salmonella): 11 mm
diameter of the inhibition zone (DIZ) (Shigella sonnei): inactive
diameter of the inhibition zone (DIZ) (Escherichia coli): 12 mm
diameter of the inhibition zone (DIZ) [1]: inactive
diameter of the inhibition zone (DIZ) (Saccharomyces cerevisiae): 11 mm
diameter of the inhibition zone (DIZ) (Pseudomonas aeruginosa): 9 mm

COc1cccc(N2C3=C(C(=O)CC(C)(C)C3)C(c3cccc(C4C5=C(CC(C)(C)CC5=O)N(c5cccc(OC)c5)C5=C4C(=O)CC(C)(C)C5)c3)C3=C2CC(C)(C)CC3=O)c1
diameter of the inhibition zone (DIZ) (Candida albicans): inactive
diameter of the inhibition zone (DIZ) (Bacillus cereus): 13 mm
diameter of the inhibition zone (DIZ) (Staphylococcus aureus): inactive
diameter of the inhibition zone (DIZ) (Bacillus subtilis): inactive
diameter of the inhibition zone (DIZ) (Salmonella): inactive
diameter of the inhibition zone (DIZ) (Shigella sonnei): 12 mm
diameter of the inhibition zone (DIZ) (Escherichia coli): 10 mm
diameter of the inhibition zone (DIZ) [1]: inactive
diameter of the inhibition zone (DIZ) (Saccharomyces cerevisiae): inactive
diameter of the inhibition zone (DIZ) (Pseudomonas aeruginosa): 7 mm
